Reference: patent US9497966B2, “Pesticidal compositions and related methods” (DOW AGROSCIENCES LLC, priority 2013, dated 2016)

Legend:
[1] = test system: Green Peach Aphid (Myzus persicae) (GPA) (MYZUPE); test: Bioassay for Green Peach Aphid, foliar spray on infested cabbage seedlings; type: in vivo; details: 72 h, 200 ppm foliar spray on cabbage, graded after three days, Abbott-corrected % control, read-out: % Control (or Mortality) rating, GPA
Procedure: Example A: Bioassays for Green Peach Aphid (Myzus persicae) (GPA) (MYZUPE)
Cabbage seedlings grown in 3-inch pots, with 2-3 small (3-5 cm) true leaves, were used as test substrate. The seedlings were infested with 20-50 GPA (wingless adult and nymph stages) one day prior to chemical application. Four pots with individual seedlings were used for each treatment. Test compounds (2 mg) were dissolved in 2 mL of acetonemethanol (1:1) solvent, forming stock solutions of 1000 ppm test compound. The stock solutions were diluted 5× with 0.025% Tween 20 in H2O to obtain the solution at 200 ppm test compound. A hand-held aspirator-type sprayer was used for spraying a solution to both sides of […] leaves until runoff. Reference plants (solvent check) were sprayed with the diluent only containing 20% by volume of acetonemethanol (1:1) solvent. Treated plants were held in a holding room for three days at approximately 25° C. and ambient relative humidity (RH) prior to grading. Evaluation was conducted by counting the number of live aphids per plant under a microscope. Percent control was measured by using Abbott's correction formula (W. S. Abbott, “A Method of Computing the Effectiveness of an Insecticide,” J. Econ. Entomol. 18 (1925), pp. 265-267) as follows. Corrected % Control=100*(X−Y)/X • where • X=No. of live aphids on solvent check plants and • Y=No. of live aphids on treated plants The results are indicated in the table entitled “TABLE 2. Biological Data for Green Peach Aphid (MYZUPE) and Sweetpotato Whitefly-crawler (WF) (BEMITA)” (See Table Section).

[2] = test system: Sweetpotato Whitefly-Crawler (Bemisia tabaci) (WF) (BEMITA); test: Insecticidal test for Sweetpotato Whitefly-Crawler in foliar spray assay on cotton plants; type: in vivo; details: 216 h, 200 ppm foliar spray on cotton, graded after 9 days, Abbott-corrected % control, read-out: % Control (or Mortality) rating, WF
Procedure: Example B: Insecticidal Test for Sweetpotato Whitefly-Crawler (Bemisia tabaci) (WF) (BEMITA) in Foliar Spray Assay
Cotton plants (Gossypium hirsutum) grown in 3-inch pots, with 1 small (4-5 cm) true leaves, were used as test substrate. The plants were infested with 200-400 whitefly eggs 4-5 days prior to chemical application. Four pots with individual plants were used for each treatment. Test compounds (2 mg) were dissolved in 1 mL of acetone solvent, forming stock solutions of 2000 ppm test compound. The stock solutions were diluted 10× with 0.025% Tween 20 in H2O (diluents) to obtain the solution at 200 ppm test compound. A hand-held aspirator-type sprayer was used for spraying a solution to both sides of cotton leaves until runoff. Reference plants (solvent check) were sprayed with the diluent only containing 10% by volume of acetone solvent. Treated plants were held in a holding room for 9 days at approximately 25° C. and ambient relative humidity (RH) prior to grading. Evaluation was conducted by counting the number of live 3-4 nymph stage per plant under a microscope. Percent control was measured by using Abbott's correction formula (W. S. Abbott, “A Method of Computing the Effectiveness of an Insecticide,” J. Econ. Entomol. 18 (1925), pp. 265-267) as follows. Corrected % Control=100*(X−Y)/X • where • X=No. of live nymphs on solvent check plants and • Y=No. of live nymphs on treated plants.
Biological Data for Green Peach Aphid (MYZUPE) and Sweetpotato Whitefly-crawler (WF) (BEMITA)” (See Table Section).

melting point [°C] | SMILES | mortality at 200 ppm [1] [%] | mortality at 200 ppm [2] [%]
 | CON=C(CSCCC(F)(F)F)C(=O)N(C)c1cn(-c2cccnc2)nc1Cl [Compound P4, N-(3-chloro-1-(pyridin-3-yl)-1H-pyrazol-4-yl)-2-(methoxyimino)-N-methyl-3-((3,3,3-trifluoropropyl)thio)propanamide] | 80 to 100 | 80 to 100
 | CON=C(C[S+]([O-])CCC(F)(F)F)C(=O)N(C)c1cn(-c2cccnc2)nc1Cl (stereo not shown) [Compound P5, N-(3-chloro-1-(pyridin-3-yl)-1H-pyrazol-4-yl)-2-(methoxyimino)-N-methyl-3-((3,3,3-trifluoropropyl)sulfinyl)propanamide] | 80 to 100 | 80 to 100
 | CON=C(CS(=O)(=O)CCC(F)(F)F)C(=O)N(C)c1cn(-c2cccnc2)nc1Cl [Compound P47, N-(3-chloro-1-(pyridin-3-yl)-1H-pyrazol-4-yl)-2-(methoxyimino)-N-methyl-3-((3,3,3-trifluoropropyl)sulfonyl)propanamide] | 80 to 100 | 80 to 100
116 to 121 | CON=C(CS)C(=O)N(C)c1cn(-c2cccnc2)nc1Cl [FA2, N-(3-chloro-1-(pyridin-3-yl)-1H-pyrazol-4-yl)-3-mercapto-2-(methoxyimino)-N-methylpropanamide] |  | 
